From patent publication US12569453B2, “Use of tapinarof for the treatment of atopic dermatitis” (Dermavant Sciences GmbH, priority 2018, dated 2026)

Assay: Phase II psoriasis study: plasma PK samples
Type: in vivo, human
Settings: of 860 samples from patients receiving an active dose
Protocol: Pharmacokinetics: Sparse PK sampling throughout the duration of the study was intended to be used to develop a population PK model and to estimate population PK parameters (i.e., apparent clearance [CL/F], apparent volume of distribution [V/F]) of systemic exposure, according to the Time and Events Table. Plasma analysis was performed under the management of Bioanalysis, Immunogenicity & Biomarkers, IVIVT, PTS, GSK.
The bioanalytical method used to support the study was a fully validated Liquid Chromatography-Tandem Mass Spectrometry (LC-MS/MS) method in accordance with FDA/EU/MHLW guidelines [US Department of Health and Human Services, Food and Drug Administration Draft Guidance for Industry: Bioanalytical Method Validation, 2013] [European Medicines Agency Guideline on Bioanalytical Method Validation, 2011] [Japanese Ministry of Health Guideline on Bioanalytical Method Validation in Pharmaceutical Development, 2013].

With `CC(C)c1c(O)cc(/C=C/c2ccccc2)cc1O` [Tapinarof, 3,5-Dihydroxy-4-isopropyl-trans-stilbene] the “plasma samples below the Lower Limit of Quantitation (LLQ)” value was 649 samples and the plasma samples quantified was 157 samples.
